Experimental data published in the NIST ThermoML archive (doi:10.1016/j.jct.2017.11.003).

What was measured:
[1] = 100 kPa, Liquid; for speed of sound: Frequency=2 MHz, Linear variable-path acoustic interferometer; for mass density: Vibrating tube method
[2] = xn = mol fraction of the nth substance listed; details: 100 kPa, Liquid; for speed of sound: Frequency=2 MHz, Linear variable-path acoustic interferometer; for mass density: Vibrating tube method

ClCCCl [1,2-dichloroethane]
[1]
Details | mass density [kg/m3] | speed of sound [m/s]
293.15 K | 1253 | 1212.5
298.15 K | 1246 | 1194.2
303.15 K | 1238 | 1174.1
308.15 K | 1231 | 1155.6

ClCCCl [1,2-dichloroethane] + CCCCCCCCCO
[2], x1 = 1
Details | mass density [kg/m3] | speed of sound [m/s]
293.15 K | 1253 | 1212.5
298.15 K | 1246 | 1194.2
303.15 K | 1238 | 1174.1
308.15 K | 1231 | 1155.6

Cc1ccccc1Cl [2-chlorotoluene]
[1]
Details | mass density [kg/m3] | speed of sound [m/s]
293.15 K | 1082 | 1317
298.15 K | 1077 | 1299.7
303.15 K | 1073 | 1283.9
308.15 K | 1068 | 1265.8

Cc1cccc(Cl)c1 [3-chlorotoluene]
[1]
Details | mass density [kg/m3] | speed of sound [m/s]
293.15 K | 1072 | 1313.8
298.15 K | 1067 | 1296.5
303.15 K | 1063 | 1279.5
308.15 K | 1058 | 1261.2

Cc1ccc(Cl)cc1 [4-chlorotoluene]
[1]
Details | mass density [kg/m3] | speed of sound [m/s]
293.15 K | 1069 | 1306.4
298.15 K | 1065 | 1288.2
303.15 K | 1060 | 1270
308.15 K | 1054 | 1252.1

CCCCCCCCCO [nonan-1-ol]
[1]
Details | mass density [kg/m3] | speed of sound [m/s]
293.15 K | 828 | 1380.5
298.15 K | 824 | 1364.7
303.15 K | 821 | 1348.1
308.15 K | 818 | 1330.5

CCCCCCCCCO [nonan-1-ol] + Cc1ccc(Cl)cc1
[2], x2 = 0
Details | mass density [kg/m3] | speed of sound [m/s]
293.15 K | 828 | 1380.5
298.15 K | 824 | 1364.7
303.15 K | 821 | 1348.1
308.15 K | 818 | 1330.5

CCCCCCCCCO [nonan-1-ol] + Cc1cccc(Cl)c1
[2], x2 = 0
Details | mass density [kg/m3] | speed of sound [m/s]
293.15 K | 828 | 1380.5
298.15 K | 824 | 1364.7
303.15 K | 821 | 1348.1
308.15 K | 818 | 1330.5

CCCCCCCCCO [nonan-1-ol] + Cc1ccccc1Cl
[2], x2 = 0
Details | mass density [kg/m3] | speed of sound [m/s]
293.15 K | 828 | 1380.5
298.15 K | 824 | 1364.7
303.15 K | 821 | 1348.1
308.15 K | 818 | 1330.5
